Measurements from publication PMC4721142, “Randomized controlled studies on the efficacy of antiarthritic agents in inhibiting cartilage degeneration and pain associated with progression of osteoarthritis in the rat” (Arthritis Research & Therapy, 2016).
Values joined by “and” are separate entries in the source; they are usually repeats but may differ in a detail not shown here. Identical values can stand only once.

Experiments:
SW982 = assay: Synovial toxicity (CellTiter-Glo), with or without TNF-α
MIA rat model of OA [1] = assay: MIA trial 3 histopathology (same doses as dRS test); assay type: in vivo; parameters: key to Cartilage matrix damage score: 5-point cartilage matrix score; key to Mean of all cartilage loss: approximate % loss, mean of four articular surfaces; Subchondral bone sclerosis: scale not given here
Description: For MIA trial 3, joints were fixed and toluidine blue–stained sections of the rat knees were comprehensively analyzed from test and control subjects as detailed in Additional file 1. Briefly, a 5-point cartilage matrix score was derived based upon (1) approximate percentage of total loss of articular chondrocytes for each of four articular surfaces, (2) estimated proteoglycan loss (via Safranin O staining), and (3) loss of interstitial matrix. Chondrocyte necrosis and proteolytic degeneration of the femurs were scored on a 5-point scale as in trial 1. A femoral cartilage degeneration score and a three-zone sum of the tibial cartilage degeneration scores (mean of three levels) were also summed to create a total cartilage degeneration score. The mean osteophyte score for each joint was added to this value to create a total joint score with matrix. Other parameters assessed included synovial membrane inflammation and proliferation. Representative images from each group were also collected (see, e.g., Fig. 4 and Additional file 1: Fig. S55, Trial 3). […]
Hawes, APS, Pathologist). Treatments were masked during the assessment. Chondrocyte necrosis and proteolytic degeneration of the femurs were scored on a 5 point scale with 0 = None; 1 = <10%; […]
For the histopathology of the MIA model in Trial 3, completed by Bolder BioPATH (and Dr.
Bendele), a tolouidine blue stained slide containing both halves of the joint was comprehensively analyzed from test and control subjects. Approximate % of total loss of articular chondrocytes, loss of proteoglycan and loss of collagenous matrix were determined for each articular surface (medial tibial plateau (MTP), lateral tibial plateau (LTP), medial femoral condyle (MFC), and lateral femoral condyle (LFC). Chondrocyte loss was quantified by estimating the area of cartilage in which there were no apparently viable chondrocytes and proteoglycan loss was quantified by estimating differences in intensity of toluidine blue matrix staining. Loss of interstitial matrix was an indication of disruption and diminished type II collagen. Based on the mean % loss for the four surfaces in these parameters, a five point matrix score was utilized with the subchondral bone resorption, subchondral bone sclerosis and osteophyte scores to achieve a total joint score. […]
[…] steps, stained with toluidine blue (with a right and left halve per section), and analyzed for cartilage degeneration, proteoglycan loss, collagen damage, and osteophyte formation. Results were averaged across the 3 sections for an overall semi-quantitative score. Regional differences across the tibial plateau were taken into consideration by dividing each section into 3 zones delineated using an ocular micrometer (outside, middle, and inside). Scores were based on the percentage of area affected within the zone.
Cartilage degeneration in the tibia was scored on a five point scale for each zone, collagen damage across the medial tibial plateau was measured by total width for each grade damage. Cartilage degeneration in the tibia was scored none to severe (numerical values 0-5) for each zone (area defined by micrometer) using the following criteria: […]

[2] = tested on: Normal human articular chondrocytes; assay: Cytotoxicity to chondrogenic pellets (CellTiter-Blue)
MMP-13 = MMP-13 ELISA on supernatants of TNF-α-treated chondrogenic pellets; assay type: cell-based, human
RAW 264.7 cells = assay: RANKL-mediated osteoclastogenesis / matrix resorption (Osteologic) assay; assay type: cell-based, murine
Experimental: RAW 264.7 cells (American Type Culture Collection [ATCC], Manassas, VA, USA), a murine monocytic cell line that differentiates in the presence of RANKL, was used for measurements of osteoclastogenesis and osteoclast activity. Cells were amplified on nonadherent culture substratum in high-glucose Dulbecco’s modified Eagle’s medium (DMEM) containing 10 % fetal bovine serum (FBS) and penicillin-streptomycin in a 37 °C, 5 % CO2, humidified incubator and were passaged by manual dissociation. […] Plates were subsequently rinsed, bleached, dried, and analyzed for matrix degradation using a Nikon COOLSCOPE (Nikon Instruments, Melville, NY, USA). Matrix resorption was quantified using EclipseNet (Nikon Instruments)/Visiopharm (Visiopharm, Hørsholm, Denmark) software (see Additional file 1).
In Vitro Osteoclastogenesis
Osteoclastogenic activity was measured using BD osteologic plates and quantitation of the degree of bone matrix digestion on the plate surface. Images from the BD Osteologic assay used to […]
left pane depicts an example of a control well after removal of cells from matrix. Pseudocoloring of matrix (blue) and pits (green) is shown in the far right pane. A transparent overlay of the two images is shown in the center.
Figure 5 - Measurement of drug effects on osteoclastogenesis and osteoclast activity.
Comparisons were made between RANKL treated control wells and wells treated with both RANKL and […]
Agents were initially tested either during differentiation or post differentiation in the bone assay […]
(e.g., Figure 2, Sulfazalazine). […]
indicated (*/**: p < 0.05/0.01, unpaired t-test versus RANKL control). […]

MIA rat model of OA [3] = assay: MIA trial 3 digital Randall-Selitto test (weekly i.a. clonidine 4.5 μg, tacrolimus 30 ng, fluocinolone 15 ng, meloxicam 100 μg, tranilast 500 ng, TH 150 μg; clonidine 100 μg/kg s.c.); assay type: in vivo
Experimental: The digital Randall-Selitto (dRS) test is said to be a reliable and repeatable measure of neuropathic, bone, and inflammatory pain behavior in several different models, including those of arthritic or joint pain [29, 31, 32]. Baseline and posttreatment values were evaluated using a dRS test device (IITC Life Science, Woodland Hills, CA, USA). Animals were allowed to acclimate to the testing room before all experimentation and for a minimum of 30 minutes before testing. To ensure that their hind limbs were accessible, the animals were gently suspended in a restraint sling. The joint compression threshold was measured once at each time point for the ipsilateral and contralateral knee joints. Pressure was applied gradually over approximately 10 seconds to the medial and lateral aspects of the knee joint. Measurements were taken from the first observed behavior of vocalization, struggle, or withdrawal. A cutoff value of 600 g was used to prevent injury to the animal.
Following isoflurane anesthesia, 50 μl (2 mg) of MIA was injected into the synovial space of the left knee. Animals were randomly assigned to groups, and pain behavior was assessed 7, 14, 21, and 28 days following MIA injection and intervention using WB with the Stoelting incapacitance meter (trial 1) or the dRS test (trials 2 and 3). […] Animals received MIA treatment and then saline control or therapeutic. […] Histopathology was performed at each time point and at study termination. All studies were conducted in accordance with the International Association for the Study of Pain Guidelines and were approved by the Algos Therapeutics, Inc. Institutional Animal Care and Use Committee (IACUC) before initiation. Those running the studies were blind to the treatments. See Additional file 1 for further details. […]
struggle or withdrawal. A cut-off value of 600 g was used to prevent injury to the animal. The mean and standard error of the mean (SEM) were determined for each treatment group.
Statistical significance was assigned as p ≤ 0.05. The stability of the vehicle group over time was assessed on each testing day (Days 7, 14, 21, and 28) using repeated measures one-way analysis of variance (ANOVA) comparing joint compression thresholds at each experimental time point on a given testing day versus that testing day’s pre-treatment value. Osteoarthritis-related pain in the vehicle group was estimated at each time point on each testing day by comparing ipsilateral (injured) to contralateral (normal) joint compression thresholds using paired t-tests. The progression of osteoarthritis-related pain in the vehicle group was estimated by comparing pre-treatment joint compression thresholds on each testing day versus pre-MIA measurements using repeated measures one-way ANOVA. […]
thresholds at each experimental time point on a given testing day with vehicle treated animals using an unpaired t-test. The acute effect of Tacrolimus was analyzed by comparing joint compression thresholds at each time point on a given testing day with the corresponding pre-treatment baseline values using repeated measures one-way ANOVA and compared to vehicle treated animals using […]
values using repeated measures one-way ANOVA. Chronic effects were analyzed by comparing pre-treatment joint compression thresholds on each testing day versus the appropriate Day 7 pre-treatment values using repeated measures one-way ANOVA and by comparing pre-treatment joint compression thresholds with vehicle treated animals on each testing day using an unpaired t-test or one-way ANOVA. Day 7 pre-treatment joint compression thresholds between all groups were assessed using one-way ANOVA. The Dunnett’s multiple comparison post hoc test was used when […]
dosing were housed three per cage. Animals had free access to food and water and were maintained […]
The animal colony was maintained at approximately 21 °C. All experiments were conducted in accordance with the International Association for the Study of Pain Guidelines.

[4] = Comparison of in vitro screens: overlapping effective and nontoxic range;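 also: compares non-toxic ranges in synovial cells and chondrocytes with effective ranges against NFkB, MMP-13 and osteoclasts, giving their overlap as the predicted efficacy range in uM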

For `Cc1cnc(NC(=O)C2=C(O)c3ccccc3S(=O)(=O)N2C)s1` [Meloxicam], the Non-toxic range (Synovial) (SW982) was 0.25 to 16 µM, the “Bone resorption percent, LFC” value (MIA rat model of OA [1]; group mean, i.a. weekly) was 0% and the “Bone resorption percent, LTP” value (MIA rat model of OA [1]; group mean, i.a. weekly) was 0%. For the same compound, the “Bone resorption percent, MFC” value (MIA rat model of OA [1]; group mean, i.a. weekly) was 15%, the “Bone resorption percent, MTP” value (MIA rat model of OA [1]; group mean, i.a. weekly) was 15% and the “Bone resorption percent, mean” value (MIA rat model of OA [1]; group mean, i.a. weekly) was 8%. For the same compound, the Bone resorption score (MIA rat model of OA [1]; group mean, i.a. weekly) was 1.0, the “Cartilage matrix damage score” value (MIA rat model of OA [1]; group mean, i.a. weekly) was 1.0 and 1.0 ± 0.0 and the “Mean of all cartilage loss” value (MIA rat model of OA [1]; group mean, i.a. weekly) was 9.7. For the same compound, the Osteophyte measure (MIA rat model of OA [1]; group mean, i.a. weekly) was 146.7 µm, the Osteophyte score (MIA rat model of OA [1]; group mean, i.a. weekly) was 0.7 and the Subchondral bone sclerosis (MIA rat model of OA [1]; group mean, i.a. weekly) was 0.3. For the same compound, the “Total joint score w/o matrix” value (MIA rat model of OA [1]; group mean, i.a. weekly) was 2.0, the “Total joint score with matrix” value (MIA rat model of OA [1]; group mean, i.a. weekly) was 3.0 and 3.0 ± 1.2 and the “Decrease of total joint score vs vehicle controls” value (MIA rat model of OA [1]; meloxicam 100 μg i.a.) was 47%. For the same compound, the “Non-toxic range (Chondrocyte)” value [2] was 0.125 to 8 M, the “Effective range against MMP-13” value (MMP-13) was “Not effective” and the “Effective range against Osteoclasts” value (RAW 264.7 cells) was “Not effective”. For the same compound, the “dRS, hours after dosing with significant difference” value (MIA rat model of OA [3]; day 7) was 1 h, the “dRS, hours after dosing with significant difference” value (MIA rat model of OA [3]; day 14) was 3 h and the “Non-toxic & predicted range of efficacy” value [4] was 16 to 32 µM. The “Overlapping effective and nontoxic range” value ([4]; inhibits with minimal or no toxicity to synovium or cartilage, overlapping range if effective in more than one assay) was 16 to 32 µM.
